Columns and labels:
Type in all cases: in vivo, rice (Nipponbare)
Details in all cases: mRNA in rice leaf sheaths after hormone treatment, Northern blotting (FIG. 2)
[1] = system: eight types of tubulin (β-tubulin mRNA expression in rice leaf sheaths); assay: Northern blotting of hormone specificity in rice leaf sheaths, all eight β-tubulins
Description: (§1) After treatment with each hormone, Northern blotting using specific probes was performed to confirm the mRNA expression in rice leaf sheaths. C: No treatment; GA: gibberellin; BL: brassinolide; ABA: abscisic acid; IAA: auxin; BA: cytokinin.
(§2) Rice (variety: Nipponbare) was grown under conditions of 600 μmol/m^2s white fluorescent light at 25° C., 75% humidity, and under a twelve-hour day/night cycle. Commercially available high-grade gibberellin (GA3), brassinolide (BL), auxin (IAA), cytokinin (BA), and abscisic acid (ABA) were used. RNA for RNA blotting analysis was extracted using Chomczynski and Sacchi's method (Chomczynski, P. and Sacchi, N., 1987, Anal. Biochem., 162: 156-159). An oligotex-dT-30 mRNA purification kit (Takara) was used to prepare mRNA for microarray analysis.
(§3) Primers were constructed specifically for eight types of β-tubulin, respectively. PCR was carried out using each β-tubulin EST clone as a template, and using a T3 primer and a primer specific to the 3′-untranslated region of each β-tubulin. […]
(§4) About 0.5 g of tissue samples rapid frozen in liquid nitrogen was ground to a powder using a mortar and a pastle, and total RNA was prepared by the methods of Chomczynski and Sacchi (Chomczynski, P. and Sacchi, N., 1987, Anal. Biochem., 162: 156-159). […] The expression amount was analyzed using image analysis apparatus (Amersham Pharmacia Biotech).

[2] = system: OsTUB5; assay: Northern blotting of hormone specificity in rice leaf sheaths, OsTUB5
Description: as §1, §2, §3, §4

[3] = system: OsTUB7; assay: Northern blotting of hormone specificity in rice leaf sheaths, OsTUB7
Description: as §1, §2, §3, §4

[4] = system: OsTUB6; assay: Northern blotting of hormone specificity in rice leaf sheaths, OsTUB6
Description: as §1, §2, §3, §4

Row | Compound | expression of all eight types of tubulin [1] | expression of OsTUB5 [2] | expression of OsTUB7 [3] | expression of OsTUB6 [4]
1 | CC1=CC(=O)CC(C)(C)[C@@]1(O)/C=C/C(C)=C\C(=O)O [abscisic acid] | suppressed | – | – | –
2 | gibberellin | – | markedly increased | markedly increased | markedly increased
3 | CC(C)[C@H](C)[C@@H](O)[C@H](O)[C@@H](C)[C@H]1CC[C@H]2[C@@H]3COC(=O)[C@H]4C[C@H](O)[C@H](O)C[C@]4(C)[C@H]3CC[C@]12C [brassinolide] | – | increased | increased | increased

From US20050009061A1, “Anther-specific genes, their promoters, and uses of the same” (priority 2003, published 2005)
